Ends that are not written are not given here.
What was measured:
Format in all cases: cell-based
[1] = tested on: E. coli strain P4; assay: bactericidal activity in serum; details: for Mean log10 colony forming units: serum, 6 hours at 37° C.
Experimental: Milk and blood samples were aseptically collected from 8 clinically healthy primiparous Holstein cows in mid-lactation with milk somatic cell counts of <150,000 cells/ml. All cows were determined to be free of intramammary pathogens by the absence of growth on blood agar plates spread with milk samples aseptically collected from each animal on 3 different days. For the preparation of whey, milk samples were centrifuged at 44,000×g at 4° C. for 30 min, and the fat layer removed with a spatula. The skim milk was transferred into another sterile tube, centrifuged for an additional 30 min, and the translucent supernatant collected. Milk and whey samples were pasteurized by heating at 63° C. for 30 min. For the preparation of serum, blood was collected from the coccygeal vein into vacutainer tubes containing gel and clot activator (BD Biosciences) for serum separation. The tubes were inverted ×5, the blood allowed to clot for 30 min, and the tubes centrifuged at 1500×g for 15 min. The clear serum supernatants were aseptically transferred into sterile tubes and heat-inactivated by incubating at 56° C. for 30 min. An aliquot of each sample was plated on blood agar plates and samples that were free of detectable bacterial growth were stored at −20° C.
Overnight bacterial cultures of E. coli strain P4 grown in trypticase soy broth were diluted 1:1,000 in brain heart infusion broth and incubated at 37° C. for 2 hours while shaking at 225 rpm. The log-phase bacteria were diluted 1:10 in brain heart infusion broth to obtain a final concentration of […]. 0.01 ml of the bacterial inoculum was added to a 1.5 ml sterile microcentrifuge tube containing 0.04 ml of serum, milk, or whey. A 0.05 ml aliquot of either peptide or CBS alone was added to each tube. The samples were then shaken at 100 rpm for 6 hours at 37° C. The sample mixtures were subsequently serially diluted in sterile phosphate-buffered saline and plated on MacConkey agar plates (BD Biosciences). The plates were incubated overnight at 37° C. and the colonies enumerated.
To determine whether bBPI142-169 and bBPI90-99,148-161 retained their bactericidal activity in physiological fluids, the peptides were incubated with E. coli strain P4 (1×10^5 CFU) in the presence of serum (Table 2) or milk (Table 3).

[2] = tested on: Klebsiella pneumoniae; assay: microbe, parasite or virus in culture
From the text: (§1) Bacterial isolates of Escherichia coli, Klebsiella pneumonia, Serratia marcescens, Pseudomonas aeruginosa, Enterobacter cloacae, and Enterobacter aerogenes, which were obtained from clinical cases of bovine mastitis, were used to assess the bactericidal activity of peptides in a broth microdilution assay. Isolates were obtained from repositories at Cornell University (gift of Dr. Y. H. Schukken; Quality Milk Production Services Program, Cornell University, Ithaca N.Y.) and the USDA Beltsville Agricultural Research Center. […] A. J. Bramley, Institute for Animal Health, Compton Laboratory, Newbury, England), which was originally isolated from a clinical case of mastitis ([…]. Dairy Res. 43: 205-211) was also used to assess the bactericidal activity of the peptides in biological fluids. Reference strains of E. coli (ATCC 25922) and Staphylococcus aureus (ATCC 29213) were obtained from a commercial source (American Type Culture Collection (ATCC), Manassas, Va.). To obtain fresh inoculums for evaluation, a sterile loop of each bacterial glycerol stock was streaked on a blood agar plate. After an overnight incubation at 35° C., a single uniform colony was picked and sub-passaged by streaking on a new blood agar plate and incubating the plate overnight at 35° C. To evaluate the antimicrobial activity of the peptides against various clinical mastitis bacterial isolates, the minimum inhibitory concentration (MIC) and the minimum bactericidal concentration (MBC) of these peptides against the isolates were determined using a standardized broth microdilution assay. In addition to the mastitis isolates, E. coli (ATCC 25922) and S. aureus (ATCC 29213) reference strains were evaluated. […] The assays were performed in accordance with Clinical and Laboratory Standards Institute (CLSI) [formerly National Committee for Clinical Laboratory Standards (NCCLS)] guidelines (National Committee for Clinical Laboratory Standards. 1999. Methods for Determining Bacterial Activity of Antimicrobial Agents: Approved Guideline. Wayne, Pa.; National Committee for Clinical Laboratory Standards. 2002. Performance Standards for Antimicrobial Disk and Dilution Susceptibility Tests for Bacteria Isolated from Animals: Approved Standard. 2nd Edition, Wayne, Pa.). […] The bacterial suspension was then diluted 100-fold in cation-adjusted Mueller-Hinton broth to reach a final inoculum concentration of 10^6 CFU/ml. […] A negative control column was included in the plate that included 100 μl of broth alone. The plates were incubated for 18 h at 35° C. with ambient air circulation and without shaking. The wells were subsequently inspected for cloudiness and pellet formation using a magnifying glass plate reader. The lowest concentration at which no pellet or cloudiness was apparent in a given well was identified as the MIC. […] The plates were incubated overnight at 35° C. and colonies subsequently enumerated. The MBC values were determined as the lowest concentration at which ≧99.9% of inoculated bacteria were killed. All assays were performed in triplicate and the MIC and MBC range reported.

[3] = tested on: Escherichia coli; assay: microbe, parasite or virus in culture
From the text: as §1

Sequence	concentrations at which bactericidal activity was demonstrated ([1]; in the presence of serum)	Mean log10 colony forming units ([1]; peptide 0.1 μg/ml)	Mean log10 colony forming units ([1]; peptide 1 μg/ml)	Mean log10 colony forming units ([1]; peptide 10 μg/ml)	Mean log10 colony forming units ([1]; peptide 100 μg/ml)	MIC and MBC values [2]	MIC and MBC values [3]	MBC [2]	MIC [2]	MBC [3]	MIC [3]
KWKARKNFIKGSSLGWLIQLFRKR [bBPI90-99,148-161]	≥ 10 µg/mL	8.25 log10 colony forming units	8.15 log10 colony forming units	0 log10 colony forming units	0 log10 colony forming units	≤ 64 mg/L	≤ 64 mg/L				
NSQIRPLPDKGLDLSIRDASIKIRGKWKARKNFIK [bBPI65-99]		8.27 log10 colony forming units	8.28 log10 colony forming units	8.23 log10 colony forming units	8.07 log10 colony forming units			>256 mg/L	>256 mg/L	>256 mg/L	>256 mg/L
VRIHISGSSLGWLIQLFRKRIESLLQKS [bBPI142-169]		8.42 log10 colony forming units	8.38 log10 colony forming units	8.29 log10 colony forming units	7.96 log10 colony forming units						

— patent publication US20090048160A1, “Antimicrobial activity of bovine bactericidal/permeability-increasing protein (BPI)-derived peptides against Gram-negative bacterial mastitis isolates” (priority 2007, published 2009)
